{
  "source": "the NIST ThermoML archive (doi:10.1021/je020159m)",
  "key": {"[1]": {"experiment": "excess molar enthalpy (molar enthalpy of mixing); xn = mol fraction of the nth substance listed", "conditions": "298.15 K, 101.33 kPa, Liquid, Flow calorimetry"}, "[2]": {"conditions": "298.15 K; 101.33 kPa; Liquid; Vibrating tube method"}},
  "note": "± gives the expanded uncertainty stated by the source.",
  "data": [
    {"smiles": "C1CCOC1", "note": "[tetrahydrofuran] + CCCCCC", "values": [
      {"measurement": "excess molar enthalpy", "setting": "[1]; x1 = 0.05", "value": "0.0362 ± 0.000574", "unit": "kcal/mol"},
      {"measurement": "excess molar enthalpy", "setting": "[1]; x1 = 0.1", "value": "0.0678 ± 0.000789", "unit": "kcal/mol"},
      {"measurement": "excess molar enthalpy", "setting": "[1]; x1 = 0.1499", "value": "0.0942 ± 0.001", "unit": "kcal/mol"},
      {"measurement": "excess molar enthalpy", "setting": "[1]; x1 = 0.2001", "value": "0.118 ± 0.0012", "unit": "kcal/mol"},
      {"measurement": "excess molar enthalpy", "setting": "[1]; x1 = 0.25", "value": "0.1371 ± 0.00134", "unit": "kcal/mol"},
      {"measurement": "excess molar enthalpy", "setting": "[1]; x1 = 0.2998", "value": "0.1538 ± 0.00148", "unit": "kcal/mol"},
      {"measurement": "excess molar enthalpy", "setting": "[1]; x1 = 0.3503", "value": "0.1645 ± 0.00158", "unit": "kcal/mol"},
      {"measurement": "excess molar enthalpy", "setting": "[1]; x1 = 0.4003", "value": "0.1733 ± 0.00165", "unit": "kcal/mol"},
      {"measurement": "excess molar enthalpy", "setting": "[1]; x1 = 0.4504", "value": "0.1788 ± 0.0017", "unit": "kcal/mol"},
      {"measurement": "excess molar enthalpy", "setting": "[1]; x1 = 0.5005", "value": "0.1794 ± 0.0017", "unit": "kcal/mol"},
      {"measurement": "excess molar enthalpy", "setting": "[1]; x1 = 0.5508", "value": "0.1793 ± 0.0017", "unit": "kcal/mol"},
      {"measurement": "excess molar enthalpy", "setting": "[1]; x1 = 0.6003", "value": "0.1743 ± 0.00165", "unit": "kcal/mol"},
      {"measurement": "excess molar enthalpy", "setting": "[1]; x1 = 0.6503", "value": "0.1663 ± 0.00158", "unit": "kcal/mol"},
      {"measurement": "excess molar enthalpy", "setting": "[1]; x1 = 0.7002", "value": "0.1544 ± 0.00148", "unit": "kcal/mol"},
      {"measurement": "excess molar enthalpy", "setting": "[1]; x1 = 0.75", "value": "0.1389 ± 0.00136", "unit": "kcal/mol"},
      {"measurement": "excess molar enthalpy", "setting": "[1]; x1 = 0.8015", "value": "0.119 ± 0.0012", "unit": "kcal/mol"},
      {"measurement": "excess molar enthalpy", "setting": "[1]; x1 = 0.8501", "value": "0.0947 ± 0.001", "unit": "kcal/mol"},
      {"measurement": "excess molar enthalpy", "setting": "[1]; x1 = 0.8998", "value": "0.0693 ± 0.000813", "unit": "kcal/mol"},
      {"measurement": "excess molar enthalpy", "setting": "[1]; x1 = 0.9499", "value": "0.0365 ± 0.000574", "unit": "kcal/mol"}
    ]},
    {"smiles": "C1CCCCC1", "note": "[cyclohexane]", "values": [
      {"measurement": "mass density", "setting": "[2]", "value": "773.92 ± 0.42", "unit": "kg/m3"}
    ]},
    {"smiles": "CCCCCCCCCC", "note": "[decane]", "values": [
      {"measurement": "mass density", "setting": "[2]", "value": "726.37 ± 0.41", "unit": "kg/m3"}
    ]},
    {"smiles": "CCCCCC", "note": "[hexane]", "values": [
      {"measurement": "mass density", "setting": "[2]", "value": "655.42 ± 0.4", "unit": "kg/m3"}
    ]},
    {"smiles": "C1CCOC1", "note": "[tetrahydrofuran] + CCCCCCCCCC", "values": [
      {"measurement": "excess molar enthalpy", "setting": "[1]; x1 = 0.05", "value": "0.0371 ± 0.000598", "unit": "kcal/mol"},
      {"measurement": "excess molar enthalpy", "setting": "[1]; x1 = 0.0999", "value": "0.0724 ± 0.000837", "unit": "kcal/mol"},
      {"measurement": "excess molar enthalpy", "setting": "[1]; x1 = 0.15", "value": "0.104 ± 0.00108", "unit": "kcal/mol"},
      {"measurement": "excess molar enthalpy", "setting": "[1]; x1 = 0.2", "value": "0.1308 ± 0.00129", "unit": "kcal/mol"},
      {"measurement": "excess molar enthalpy", "setting": "[1]; x1 = 0.2503", "value": "0.1543 ± 0.00151", "unit": "kcal/mol"},
      {"measurement": "excess molar enthalpy", "setting": "[1]; x1 = 0.3", "value": "0.1748 ± 0.00167", "unit": "kcal/mol"},
      {"measurement": "excess molar enthalpy", "setting": "[1]; x1 = 0.3498", "value": "0.1922 ± 0.00182", "unit": "kcal/mol"},
      {"measurement": "excess molar enthalpy", "setting": "[1]; x1 = 0.4002", "value": "0.2066 ± 0.00194", "unit": "kcal/mol"},
      {"measurement": "excess molar enthalpy", "setting": "[1]; x1 = 0.4509", "value": "0.2141 ± 0.00198", "unit": "kcal/mol"},
      {"measurement": "excess molar enthalpy", "setting": "[1]; x1 = 0.4999", "value": "0.2201 ± 0.00206", "unit": "kcal/mol"},
      {"measurement": "excess molar enthalpy", "setting": "[1]; x1 = 0.5499", "value": "0.2222 ± 0.00206", "unit": "kcal/mol"},
      {"measurement": "excess molar enthalpy", "setting": "[1]; x1 = 0.6002", "value": "0.2203 ± 0.00206", "unit": "kcal/mol"},
      {"measurement": "excess molar enthalpy", "setting": "[1]; x1 = 0.6501", "value": "0.2133 ± 0.00198", "unit": "kcal/mol"},
      {"measurement": "excess molar enthalpy", "setting": "[1]; x1 = 0.7003", "value": "0.2016 ± 0.00189", "unit": "kcal/mol"},
      {"measurement": "excess molar enthalpy", "setting": "[1]; x1 = 0.7502", "value": "0.185 ± 0.00174", "unit": "kcal/mol"},
      {"measurement": "excess molar enthalpy", "setting": "[1]; x1 = 0.8003", "value": "0.1621 ± 0.00158", "unit": "kcal/mol"},
      {"measurement": "excess molar enthalpy", "setting": "[1]; x1 = 0.8502", "value": "0.134 ± 0.00134", "unit": "kcal/mol"},
      {"measurement": "excess molar enthalpy", "setting": "[1]; x1 = 0.9011", "value": "0.098 ± 0.00108", "unit": "kcal/mol"},
      {"measurement": "excess molar enthalpy", "setting": "[1]; x1 = 0.95", "value": "0.0545 ± 0.000765", "unit": "kcal/mol"}
    ]},
    {"smiles": "C1CCOC1", "note": "[tetrahydrofuran]", "values": [
      {"measurement": "mass density", "setting": "[2]", "value": "882.09 ± 0.46", "unit": "kg/m3"}
    ]},
    {"smiles": "C1CCOC1", "note": "[tetrahydrofuran] + C1CCCCC1", "values": [
      {"measurement": "excess molar enthalpy", "setting": "[1]; x1 = 0.05", "value": "0.0385 ± 0.000574", "unit": "kcal/mol"},
      {"measurement": "excess molar enthalpy", "setting": "[1]; x1 = 0.1", "value": "0.0709 ± 0.000813", "unit": "kcal/mol"},
      {"measurement": "excess molar enthalpy", "setting": "[1]; x1 = 0.15", "value": "0.0988 ± 0.00103", "unit": "kcal/mol"},
      {"measurement": "excess molar enthalpy", "setting": "[1]; x1 = 0.2001", "value": "0.121 ± 0.0012", "unit": "kcal/mol"},
      {"measurement": "excess molar enthalpy", "setting": "[1]; x1 = 0.2499", "value": "0.1399 ± 0.00136", "unit": "kcal/mol"},
      {"measurement": "excess molar enthalpy", "setting": "[1]; x1 = 0.2997", "value": "0.1529 ± 0.00148", "unit": "kcal/mol"},
      {"measurement": "excess molar enthalpy", "setting": "[1]; x1 = 0.35", "value": "0.1636 ± 0.00155", "unit": "kcal/mol"},
      {"measurement": "excess molar enthalpy", "setting": "[1]; x1 = 0.4003", "value": "0.1707 ± 0.00163", "unit": "kcal/mol"},
      {"measurement": "excess molar enthalpy", "setting": "[1]; x1 = 0.4504", "value": "0.174 ± 0.00165", "unit": "kcal/mol"},
      {"measurement": "excess molar enthalpy", "setting": "[1]; x1 = 0.4999", "value": "0.1745 ± 0.00165", "unit": "kcal/mol"},
      {"measurement": "excess molar enthalpy", "setting": "[1]; x1 = 0.5498", "value": "0.1722 ± 0.00163", "unit": "kcal/mol"},
      {"measurement": "excess molar enthalpy", "setting": "[1]; x1 = 0.6", "value": "0.1663 ± 0.00158", "unit": "kcal/mol"},
      {"measurement": "excess molar enthalpy", "setting": "[1]; x1 = 0.65", "value": "0.1569 ± 0.00151", "unit": "kcal/mol"},
      {"measurement": "excess molar enthalpy", "setting": "[1]; x1 = 0.7003", "value": "0.1444 ± 0.00141", "unit": "kcal/mol"},
      {"measurement": "excess molar enthalpy", "setting": "[1]; x1 = 0.7498", "value": "0.1264 ± 0.00124", "unit": "kcal/mol"},
      {"measurement": "excess molar enthalpy", "setting": "[1]; x1 = 0.8", "value": "0.108 ± 0.0011", "unit": "kcal/mol"},
      {"measurement": "excess molar enthalpy", "setting": "[1]; x1 = 0.8505", "value": "0.0858 ± 0.000908", "unit": "kcal/mol"},
      {"measurement": "excess molar enthalpy", "setting": "[1]; x1 = 0.9003", "value": "0.0599 ± 0.000717", "unit": "kcal/mol"},
      {"measurement": "excess molar enthalpy", "setting": "[1]; x1 = 0.95", "value": "0.0309 ± 0.000526", "unit": "kcal/mol"}
    ]}
  ]
}
